Data taken from publication PMC8711299, “Rational Designed Hybrid Peptides Show up to a 6-Fold Increase in Antimicrobial Activity and Demonstrate Different Ultrastructural Changes as the Parental Peptides Measured by BioSAXS” (Frontiers in Pharmacology, 2021).
Values after ≈ are worked out from the molar mass of the structure shown. Positions of bridges follow the written chain, without caps; N, C: chain ends. Residues, ends and D or L forms follow the SMILES beside them. No end group written: not given here.

Key:
E. coli [1] = test: MIC of standard antibiotics against E. coli (BioSAXS comparison); type: cell-based, Escherichia coli; details: used at 3x MIC, 240 min incubation, for BioSAXS
Text: To discuss the obtained results in the context of conventional antibiotics, compared the peptides to three antibiotics, tigecycline (bacteriostatic activity by binding to the […] ribosomal subunit of the bacterial ribosome), chloramphenicol (bacteriostatic activity by binding to the […] ribosomal subunit of the bacterial ribosome), and rifampicin (bactericidal activity by inhibiting the DNA-dependent RNA polymerase activity), see Figure 5. […] As the antibiotics have slower kill kinetics than the AMPs, 240 min incubation time was used. […] The PCA values of Bac5-v291 and hyP7B5GK deviate strongly from the untreated controls and the standard antibiotics. The PCA values of peptides hyP7B5Cys and optP7 are nearest to chloramphenicol.

E. coli [2] = type: cell-based, Escherichia coli
Text: (§1) In this project the following bacterial strains were used: 1) methicillin-resistant Staphylococcus aureus (S. aureus) HO 5096 0412 (a neonatal infection isolate, isolated in Ipswich, England in 2005, obtained from Jody Lindsay (St. George’s, University of London), 2) Escherichia coli (E. coli, UB1005, F-, LAM-, gyrA37, relA1, spoT1, metB1, LAMR) used solely for transmission electron microscopy, E. coli (ATCC 25922), 3) Pseudomonas aeruginosa PAO1 obtained from Dr Robert E.W. Hancock (Department of Microbiology and Immunology, University of British Columbia).
(§2) Mueller-Hinton broth (MHb) (Merck, Life Science UK Limited, Dorset, UK)) was prepared concurring to the manufacturer’s directions was used to grow the bacterial strains. Liquid bacterial cultures were incubated at 37°C for 18–20 h on a shaker, bacterial culture on solid media was incubated for 18–24 h at 37°C.
(§3) A broth microdilution assay was applied to determine the minimum inhibitory concentrations (MIC) in MHb for both, using 5 × 10^5 CFU/ml (MICs in Table 1) and 10^8 CFU/ml (BioSAXS and electron microscopy, values in Table 2). A detailed description of the method can be found in the open-source publication by von Gundlach et al. (von Gundlach et al., 2019a).

[3] = system: methicillin-resistant Staphylococcus aureus HO 5096 0412 (MRSA); type: cell-based; details: methicillin-resistant HO 5096 0412
Text: as §1, §2, §3

[4] = system: Pseudomonas aeruginosa PAO1; type: cell-based
Text: as §1, §2, §3

human red blood cells = type: cell-based; details: for HC50 (peptide concentration needed to induce haemolysis in human red blood cells at 50%): red cells of human, 1 h
Method: The protocol to determine the haemolytic activity of the peptides and HC50 values were described previously ([Grimsey et al., 2020]). Briefly, human blood was washed and diluted with PBS (4% v/v) and incubated with a pre-made dilution series of the peptides and incubated for 1 h at 37 C. The 100% haemolysis value was achieved by incubation with Triton X (1% final concentration). Haemoglobin was measured at 414 and 546 nm using an ELISA plate reader. HC50 values were determined using the Prism software (GraphPad).

E. coli [5] = type: cell-based, Escherichia coli; remark: listed apart in the source
Text: as §3
Quite early on in our drug development process, we have selected optP7 over optP1 for a slightly better MIC against P. aeruginosa. Further investigations were performed with peptide optP7 only. Firstly, we investigated E. coli cells treated with optP7 by transmission electron microscopy (TEM) to get a better understanding of the mode of action/ultrastructural changes of the peptides on E. coli, see Figure 1. In order to achieve a sufficient number of bacteria to form a pellet, a bacterial concentration of 1 × 10^8 CFU/ml was used. […] The outer membrane of E. coli of the untreated sample appears thick and relatively smooth (Figure 1, arrow 1), whereas for the peptide treated one, it was damaged (Figure 1, arrow 2) and blebbing was visible (Figure 1, arrow 3), where lipopolysaccharides (LPS) form small vesicles and are shed from the cell. The inner membrane for both, the untreated control (Figure 1A, arrow 4), and the peptide treated E. coli (Figure 1, arrow 5) seemed to remain intact and no spillage of the cytosol content was observed. The DNA in untreated bacterial cells comprised dispersed fibrils in the cytoplasm, see Figure 1, dotted lines. The bacterial DNA is concentrated in a ‘DNA–plasm’ called the nucleoid ([Ohniwa et al., 2007]). The peptide optP7 creates an enlarged and spherical nucleoid, dotted line in Figure 1., typically seen in DNA-dependent RNA polymerase inhibitors and protein synthesis inhibitors. Compared to the untreated bacteria (Figure 1, arrow 6), the peptide treated ones show more pronounced granular substructures (Figure 1, arrow 7) in the cytosol could indicate aggregation of cytosolic proteins. These substructures were observed before using small AMPs ([Von Gundlach et al., 2016a], [2019]).
Small-angle X-ray scattering for biological samples (BioSAXS) on the P12 beamline can be used to measure ultrastructural changes within the bacteria in the range between 2 and 157 nm, from which we used the range from 20 to 120 nm for analysis of the bacteria after treatment with the antimicrobial peptides. […] The MICs for the selected peptides against E. coli at 1 × 10^8 CFU/ml were determined (Table 2). […] To quantify the subtle changes between the different treatments we used a PCA analysis using SciXMiner and the “Peptide Extension” tool ([Mikut, 2010]; [Mikut et al., 2017]) (Figure 4). […]

Row | Compound | MIC against E. coli (standard antibiotics) (E. coli [1]) [µg/mL] | MIC E. coli (E. coli [2]) [µM] | MIC MRSA [3] [µM] | MIC PA (P. aeruginosa) [4] [µM] | Therapeutic window HC50/MIC(MRSA) (human red blood cells) | HC50 (peptide concentration needed to induce haemolysis in human red blood cells at 50%) (human red blood cells) [µM] | MIC E. coli at 1 × 10^8 CFU/ml (E. coli [5]) [µM]
1 | O=C(N[C@H](CO)[C@H](O)c1ccc([N+](=O)[O-])cc1)C(Cl)Cl [chloramphenicol] | 8 | – | – | – | – | – | –
2 | VRKPPYLPRPRPRPLGGGKIILRIRWR-NH2 [hyP1CoG2] | – | 1 | 2.5 | 2.5 | >62.8 | >157 | –
3 | KRRVRWIIWGGGVRKPPYLPRPRPRPL-NH2 [hyP7CoG2] | – | 2.5 | 5 | 2.5 | >30.8 | >154 | –
4 | CO[C@H]1/C=C/O[C@@]2(C)Oc3c(C)c(O)c4c(O)c(c(/C=N/N5CCN(C)CC5)c(O)c4c3C2=O)NC(=O)/C(C)=C\C=C\[C@H](C)[C@H](O)[C@@H](C)[C@@H](O)[C@@H](C)[C@H](OC(C)=O)[C@@H]1C [rifampicin] | 15 | – | – | – | – | – | –
5 | CC[C@H](C)[C@H](NC(=O)[C@H](Cc1c[nH]c2ccccc12)NC(=O)[C@H](CCCNC(=N)N)NC(=O)[C@@H](NC(=O)[C@H](CCCNC(=N)N)NC(=O)[C@H](CCCNC(=N)N)NC(=O)[C@H](CCCCN)NC(=O)CNC(=O)[C@H](CCCCN)NC(=O)[C@@H]1CSSC[C@H](NC(=O)[C@H](CCCCN)NC(=O)CNC(=O)[C@H](CCCCN)NC(=O)[C@H](CCCNC(=N)N)NC(=O)[C@H](Cc2c[nH]c3ccccc23)NC(=O)[C@H](Cc2ccccc2)NC(=O)[C@@H]2CCCN2C(=O)[C@@H]2CCCN2C(=O)[C@H](CCCNC(=N)N)NC(=O)[C@@H](NC(=O)[C@@H]2CCCN2C(=O)[C@H](CCCNC(=N)N)NC(=O)[C@H](CCCNC(=N)N)NC(=O)[C@H](CCCNC(=N)N)NC(=O)[C@@H](NC(=O)[C@@H]2CCCN2C(=O)[C@H](CCCNC(=N)N)NC(=O)[C@H](CCCNC(=N)N)NC(=O)[C@H](Cc2c[nH]c3ccccc23)NC(=O)[C@@H](N)CCCNC(=N)N)[C@@H](C)CC)[C@@H](C)CC)C(=O)N[C@@H](CO)C(=O)N[C@@H](CO)C(=O)N1)C(C)C)C(=O)N[C@H](C(=O)N[C@@H](Cc1c[nH]c2ccccc12)C(N)=O)[C@@H](C)CC [hyP7B5Cys] (H-RWRRPIRRRPIRPPFWRKGKCSSCKGKRRVRWIIW-NH2; disulfide 21-24) | – | 0.6 (≈ 2.74 µg/mL) | 1 (≈ 4.57 µg/mL) | 2 (≈ 9.15 µg/mL) | >102 | 102 | 4
6 | VRKPPYLPRPRPRPL-NH2 [consP1] | – | 35 | >139 | >139 | – | >139 | –
7 | RWRRPIRRRPIRPPFWRKKKKRRVRWIIW-NH2 [hyP7B5K] | – | 2 | 2 | 2 | 41 | 82 | –
8 | KIILRIRWRGGGVRKPPYLPRPRPRPL-NH2 [hyP1CoG1] | – | 1 | 2.5 | 1 | >62.8 | >157 | –
9 | VRKPPYLPRPRPRPLGGGKRRVRWIIW-NH2 [hyP7CoG1] | – | 1 | 5 | 5 | >30.8 | >154 | –
10 | KIILRIRWR-NH2 [optP1] | – | 1 | 1.5 | 6 | 137 | 205 | –
11 | CN(C)c1cc(NC(=O)CNC(C)(C)C)c(O)c2c1C[C@H]1C[C@H]3[C@H](N(C)C)C(O)=C(C(N)=O)C(=O)[C@@]3(O)C(O)=C1C2=O [tigecycline] | 4 | – | – | – | – | – | –
12 | RWRRPIRRRPIRPPFWRGGGKRRVRWIIW-NH2 [hyP7B5G] | – | 2 | 2 | 2 | 51 | 102 | –
13 | KRRVRWIIW-NH2 [optP7] | – | 1.5 | 6 | 3 | >32.5 | >195 | 14
14 | RWRRPIRRRPIRPPFWRKGKGKGKRRVRWIIW-NH2 [hyP7B5GK] | – | 1 | 1 | 2 | >120 | >120 | 4
15 | RWRRPIRRRPIRPPFWR-NH2 [Bac5-v291] | – | 1.7 | 27 | 27 | >10.3 | >278 | 1.1
